According to patent US5252749A, “Ethers of thienocyclopentanone oximes, their preparation and pharmaceutical compositions containing them” (Elf Sanofi, priority 1991, dated 1993):
Values belong to the molecule of their own block, whether it stands above or below them.

Legend:
5HT3 receptors = conditions: rats, Bezold-Jarisch reflex; compounds studied in J. Pharm. Pharmacol. 40, 301-302 (1988); cited from earlier work
5HT1D receptor = conditions: Headache 29, 420-422, July 1989; cited from earlier work
5HT1A receptor = conditions: Headache 29, 420-422, July 1989; cited from earlier work
[1] = in man; cited from earlier work
5HT1D receptors = molecular target: T1, 5HT1D receptors (Bos taurus, UniProt F1MGM3); assay: Displacement of tritiated serotonin from 5HT1D receptors on membrane preparations of bovine caudate nuclei; conditions: bovine caudate nuclei membranes, in vitro, read-out: concentration which inhibits 50% of the binding of the tritiated compound (IC50)
T1 construct: membrane preparations of bovine caudate nuclei; from tissue; host or cells: bovine caudate nuclei, membrane preparation
T1 sequence (F1MGM3 1-403): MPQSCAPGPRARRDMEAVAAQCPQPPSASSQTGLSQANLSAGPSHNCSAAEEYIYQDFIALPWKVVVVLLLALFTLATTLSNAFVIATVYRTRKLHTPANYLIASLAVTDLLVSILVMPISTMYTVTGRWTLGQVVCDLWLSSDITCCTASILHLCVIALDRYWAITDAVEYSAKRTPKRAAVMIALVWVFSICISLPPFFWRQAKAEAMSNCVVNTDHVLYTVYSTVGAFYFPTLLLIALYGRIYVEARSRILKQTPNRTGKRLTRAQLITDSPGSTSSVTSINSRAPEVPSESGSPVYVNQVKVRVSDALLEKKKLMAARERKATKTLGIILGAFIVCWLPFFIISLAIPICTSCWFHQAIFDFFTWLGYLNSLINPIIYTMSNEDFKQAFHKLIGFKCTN

SMILES: CN1[C@@H]2CC[C@H]1CC(OC(=O)c1c[nH]c3ccccc13)C2 (stereo partly shown) [ICS 205-930]
dose which inhibits 50% of the serotonin activity (ID50) (5HT3 receptors): approximately 1 μg/kg

SMILES: CCN(CC)CCNC(=O)c1cc(Cl)c(N)cc1OC [metoclopramide]
dose which inhibits 50% of the serotonin activity (ID50) (5HT3 receptors): ~0.4 mg/kg

IC50 (5HT1D receptors): ~0.1 µM
SMILES: CNS(=O)(=O)Cc1ccc2[nH]cc(CCN(C)C)c2c1 [sumatriptan]
agonist activity at the 5HT1D receptor (5HT1D receptor): powerful agonist of the 5HT1D receptor | agonist activity at the 5HT1A receptor (5HT1A receptor): weak agonist of the 5HT1A receptor | antimigraine activity [1]: marked antimigraine activity in man

SMILES: COc1cc(N)c(Cl)cc1C(=O)NC1CN2CCC1CC2 (stereo not shown) [zacopride]
dose which inhibits 50% of the serotonin activity (ID50) (5HT3 receptors): ~0.00025 mg/kg
